Experimental data published in patent US20240082311A1, “COMPOSITIONS AND METHODS FOR TREATING SPINAL CORD INJURIES” (ASTERIAS BIOTHERAPEUTICS, INC., priority 2021, published 2024).

B1: Decorin: small leucine-rich proteoglycan, TGF-β1/2 antagonist; recombinant form tested in rat SCI models (protein, UniProt P07585 31-359, looked up)
Decorin: DEASGIGPEVPDDRDFEPSLGPVCPFRCQCHLRVVQCSDLGLDKVPKDLPPDTTLLDLQNNKITEIKDGDFKNLKNLHALILVNNKISKVSPGAFTPLVKLERLYLSKNQLKELPEKMPKTLQELRAHENEITKVRKVTFNGLNQMIVIELGTNPLKSSGIENGAFQGMKKLSYIRIADTNITSIPQGLPPSLTELHLDGNKISRVDAASLKGLNNLAKLGLSFNSISAVDNGSLANTPHLRELHLDNNKLTRVPGGLAEHKYIQVVYLHNNNISVVGSSDFCPPGHNTKKASYSGVSLFSNPVQYWEIQPSTFRCVYVRSAIQLGNYK

Legend:
[1] = system: participants with neurologically complete thoracic spinal cord injury (T3-T11); assay: Phase 1 thoracic SCI trial (NCT01217008): safety, adverse events; type: in vivo, human; settings: N=5
Procedure: Study design. The trial design was an open-label, multicenter study. A single dose of 2×10^6 LCTOPC1 was injected within 7 to 14 days following SCI. Subjects who received LCTOPC1 also received tacrolimus to prevent rejection.
This study was a Phase 1, multi-center, non-randomized, a single group assignment interventional clinical trial. The Participants were enrolled from one of seven centers in the United States. The study was registered (NCT01217008) and the primary endpoint was safety, as measured by the frequency and severity of adverse events related to LCTOPC1, the injection procedure used to administer LCTOPC1, and/or the concomitant immunosuppression administered. The secondary endpoint was neurological function as measured by sensory scores and lower extremity motor scores on ISNCSCI examinations.
Safety Assessments. The primary endpoint of the Phase 1 clinical trial was safety, as measured by the frequency and severity of adverse events (AEs) within 1 year of LCTOPC1 injection that were related to LCTOPC1, the injection procedure used to administer LCTOPC1, and/or the concomitant immunosuppression administered. […]
Definition of an Adverse Event. […] The severity of AEs and the characterization of Serious Adverse Events (SAEs) were evaluated using standard FDA criteria.
The relationship of AEs to the investigational drug was determined by each site investigator and was categorized as “Possibly Related” based on the following criteria: 1) the AE was reasonably related in time with LCTOPC1 exposure, the injection procedure used to administer LCTOPC1, and/or the concomitant immunosuppression administered AND 2) the AE could be explained either by exposure to the investigational product or equally well by factors or causes other than exposure to the investigational product. Adverse events were monitored by the External Medical Monitor, Sponsor Medical Monitor, and DSMB.

[2] = system: subjects with subacute cervical spinal cord injury (C4-C7, AIS A/B); assay: Phase 1/2a cervical SCI dose escalation study: safety, adverse events, MRI; type: in vivo, human
Procedure: Study Design. The trial design was an open-label, staggered dose escalation, cross-sequential, multicenter study. Three sequential, escalating doses of AST-OPC1 were administered at a single tie point between 21 and 42 days post-injury to subjects with subacute cervical spinal cord injuries (SCI). Subjects received AST-OPC1 via direct intra-spinal injection using a Syringe Positioning Device (SPD). To prevent rejection of engraftment, low dose tacrolimus was initiated 6 to 12 hours after and intra-spinal injection, and continued for 46 days, tapered from Day 46 to Day 60, and was discontinued at Day 60. Subjects were followed for 1 year following administration of AST-OPC1 under this protocol. Male or female subjects from 18 to 69 years of age at time of consent with sensorimotor complete, traumatic SCI (American Spinal Injury Association Impairment Scale A) or sensorimotor incomplete, traumatic SCI (American Spinal Injury Association Impairment Scale B). […] There was a single spinal cord lesion on a post-stabilization magnetic resonance imaging (MRI) scan, with sufficient visualization of the spinal cord injury epicenter and lesion margins to enable post-injection safety monitoring. Subjects were able to participate in an elective surgical procedure to inject AST-OPC1 21 to 42 days following SCI. Subjects received a single dose of either 2×10^6, 1×10^7, or 2×10^7 AST-OPC1 viable cells by injection, administered 21 to 42 days following SCI. The product was delivered intraoperatively into the spinal cord using the Syringe Positioning Device. The AST-OPC1 batch numbers used in this study were M08D1A, M22D1A and M25D1A. Single administration of AST-OPC1 was provided with 1 year of follow-up. Schematics of the planned study timeline, and subject screening and treatment, are provided in FIG. 6 and FIG. 7, respectively. A schematic diagram of the final open-label, staggered dose-escalation, multicenter Phase 1/2a clinical trial is shown in FIG. 8. An overview of study visits for the one-year protocol is presented in the study schema in FIG. 9.
A neurological examination was completed using the standardized International Standards for Neurological Classification of Spinal Cord Injury (ISNCSCI) examination for motor and sensory testing and for designation of the American Spinal Injury Association impairment scale. The ISNCSCI is used for efficacy with respect to improved motor function in the extremities, improved sensory function, and/or a descending neurological level. Safety assessments included physical examination, vital signs, ISNCSCI neurological examination, pain questionnaire (International Spinal Cord Injury Pain Basic Data Set, ISCIPBDS), electrocardiogram (ECG), Magnetic Resonance Imaging (MRI), laboratory tests, concomitant medications, and adverse events (AEs). Results for the ISNCSCI were listed for each subject by scheduled visit and analyzed by change in motor level and motor scores as well as other exploratory assessments of arm/hand function, self-care ability and overall volitional performance. Adverse events were tabulated by system organ class and by preferred term within system organ class according to the Medical Dictionary for Regulatory Activities (MedDRA®) Version 18.0. Statistical analysis of the safety data was performed using descriptive statistical methods including AEs incidence, severity and relatedness to AST-OPC1, to the injection procedure for product administration, and concomitant immunosuppression with tacrolimus. The number of laboratory assessments (hematology, clinical chemistry) that were below, within, or above the normal laboratory reference range were summarized for each analyte at scheduled study visits. Vital signs were summarized by calculating the mean, standard deviation, median, and range of values at each of the protocol-specified time points.
Study Endpoints. […]

[3] = system: dorsal funicular lesion (DFL) SCI model; settings: cited from earlier work

| Molecule | Grade 1 AEs possibly related specifically to tacrolimus (number) [1] | Grade 2 AEs possibly related specifically to tacrolimus (number) [1] | AEs possibly related specifically to the immunosuppression (number of the 25) ([1]; tacrolimus to Day 60, trough 3 to 7 ng/mL) | Hypomagnesemia: Days from Injection ([2]; both, human, in vivo) [days] | Nausea: Days from Injection ([2]; both, human, in vivo) [days] | Decreased Appetite: Severity ([2]; both, human, in vivo, 365 days) | Hypomagnesemia: Severity ([2]; both, human, in vivo, 365 days) | Nausea: Severity ([2]; both, human, in vivo, 365 days) | Bacterial infection: Days from Injection ([2]; causality Tacrolimus) [days] | Bacterial infection: Outcome ([2]; causality Tacrolimus) | Bacterial infection: Severity ([2]; causality Tacrolimus) | Decreased Appetite: Outcome ([2]; in vivo) | Hypomagnesemia: Outcome ([2]; in vivo) | Nausea: Outcome ([2]; in vivo) | Acute scarring and wound cavitation ([3]; DFL SCI model, adult rats) | Axonal regrowth ([3]; acute and chronic experiments, vs PBS-treated DFL) | Inflammation, glial scar formation and CSPG expression ([3]; after acute spinal cord injury) |
| --- | --- | --- | --- | --- | --- | --- | --- | --- | --- | --- | --- | --- | --- | --- | --- | --- | --- |
| C=CC[C@@H]1/C=C(\C)C[C@H](C)C[C@H](OC)[C@H]2O[C@@](O)(C(=O)C(=O)N3CCCC[C@H]3C(=O)O[C@H](/C(C)=C/[C@@H]3CC[C@@H](O)[C@H](OC)C3)[C@H](C)[C@@H](O)CC1=O)[C@H](C)C[C@@H]2OC [Tacrolimus, tacrolimus] | Seven | nine | Sixteen | 5 to 43 | 7 | Grade 2 | Grade 1-2 | Grade 2 | 30 | Resolved | Grade 3 | Resolved | Resolved | Resolved |  |  |  |
| B1 |  |  |  |  |  |  |  |  |  |  |  |  |  |  | suppressed acute scarring (fibrogenesis) and wound cavitation | promoted axonal regrowth | inhibit inflammation, glial scar formation and CSPG expression |
